# Test results reported in ChEMBL document CHEMBL5360560, “Anti-Vibrio potential of natural products from marine microorganisms” (Eur J Med Chem, 2023).
# How the values were obtained:
# Type in all cases: functional
# Vibrio anguillarum = assay: Antimicrobial activity against Vibrio anguillarum QDIO-1 assessed as bacterial growth inhibition
# Vibrio vulnificus = assay: Antibacterial activity against Vibrio vulnificus MCCC E1758 assessed as bacterial growth inhibition measured after 24 hrs by resazurin dye based assay
# Vibrio scophthalmi = assay: Antimicrobial activity against Vibrio scophthalmi assessed as bacterial growth inhibition
# Vibrio mediterranei = assay: Antimicrobial activity against Vibrio mediterranei assessed as bacterial growth inhibition
# Vibrio brasiliensis = assay: Antimicrobial activity against Vibrio brasiliensis assessed as bacterial growth inhibition
structure (smiles),measurement,setting,value
CC(C)[C@@H](C)/C=C/[C@@H](C)[C@H]1CC[C@@H]2[C@]1(C)CC[C@H]1[C@]23O[C@H]3C(=O)C2=CC(=O)CC[C@@]21C,MIC,Vibrio anguillarum,32 µg/mL
CC[C@H](C)/C=C/C1=CC2=C(Cl)C(=O)[C@@]3(C)OC(=O)C(C(=O)[C@@H](C)[C@@H](C)O)=C3C2=CN1CCOCCO,MIC,Vibrio vulnificus,7.4 µg/mL
C=C(C(C)C)[C@H](C[C@@H](C)[C@H]1CC[C@H]2[C@@H]3C(=O)C=C4C[C@@H](O)CC[C@]4(C)[C@H]3CC[C@]12C)OC(C)=O,MIC,Vibrio scophthalmi,8 µg/mL
same,MIC,Vibrio mediterranei,8 µg/mL
same,MIC,Vibrio brasiliensis,9 µg/mL
